# Experimental data published in patent US6878690B2, “Compounds and methods” (PharmAxis Pty Ltd., priority 2000, dated 2005).
# Several values for one entry are separate records, joined by “and”; a condition that tells them apart may be missing. Identical values can stand only once.
# Experiments:
# [1] = tested on: passively transferred EAE; experiment: Passively transferred EAE induced with encephalitogenic MBP-specific T cell line (Example 23); type: in vivo, Lewis rats
# Description: In order to study the effect of the agents of the present invention in vivo on a disease caused by T lymphocyte migration into a specific tissue, experiments were performed in the Lewis rat model of passively transferred EAE. Here, myelin basic protein (MBP)-specific T lymphocyte cell lines were generated from the draining lymph nodes of Lewis rats that had been immunised with MBP in Freund's complete adjuvant essentially according to the method of Ben-Nun et al. (1981) as described in Example 8. Thus, in this manner, donor T lymphocytes were generated from female 10 to 12 week old Lewis rats weighing 150 to 200 g. These rats were injected intradermally in a footpad of each hind foot with an emulsion of Guinea pig myelin basic protein (MBP; prepared according to the method of Deibler et al., 1972; incorporated herein by reference) in Freund's complete adjuvant (0.05 ml). The adjuvant emulsion was prepared by emulsifying equal volumes of a mixture of light mineral oil (Sigma) and normal saline containing Guinea pig myelin basic protein (0.5 mg/ml) and Mycobacterium butyricum (4 mg/ml; Difco). Thus, the total dose per rat was 50 micrograms of MBP and 400 micrograms of M. butyricum. Approximately 11 days following injection, the rats were euthanased and the draining lymph nodes (popliteal and inguinal) removed aseptically by blunt dissection and placed into mixed lymphocyte culture medium. This medium was prepared in the normal fashion from Dulbecco's Modified Eagle's Medium (DMEM; GIBCO, Grand Island, N.Y.) supplemented with glucose, folic acid, L-asparagine, sodium bicarbonate, L-glutamine, sodium pyruvate, HEPES, 2-mercaptoethanol (5×10^−5 M), penicillin, streptomycin, neomycin, and 2% fetal calf serum. A single cell suspension was prepared from the lymph nodes in the usual manner by gently pushing the nodes through a stainless steel screen. The cells were washed twice in the culture medium and following this procedure, any red blood cells were lysed in the usual manner by treating with a solution of ammonium chloride, EDTA and sodium hydrogen carbonate (pH 7.3) and the preparation strained (Falcon 2350 cell strainer). The cells were washed again in the lymphocyte culture medium. All cell preparative steps were performed on ice. These cells were cultured asceptically for 72 hours at 37° C. in a humidified atmosphere containing 7.5% carbon dioxide at a concentration of 5 million cells per milliliter in the presence of MBP (0.06 mg/ml). The cells were collected and the lymphoblasts were isolated by centrifugation on a Ficoll (Pharmacia, Uppsala, Sweden) gradient in an identical manner to that described by Ben Nun et al. (1981). The fraction containing ≧90% lymphoblasts was cultured and propagated in Eagle's medium supplemented with 15% of a concanavalin A-stimulated lymphocyte supernatant to provide growth factors, 10% fetal calf serum, nonessential amino acids (Bio-Lab, Jerusalem, Israel); sodium pyruvate, 2-mercapto ethanol and antibiotics without added antigen. The cells were plated in 100 mm petri dishes at a concentration of 0.2 million cells/ml and replated every 3 or 4 days. Prior to transfer into Lewis recipients, the cells were restimulated in the presence of MBP (0.01 mg/ml) and irradiated syngeneic thymocytes for 4 days.
# These cells were highly encephalitogenic sine as few as 500,000 cells were capable of inducing disease when injected into naïve Lewis rats. Thus, in a typical experiment a group of 5 female Lewis rats, approximately 9 weeks old, weighing 110±15 grams were anesthetised with diethyl ether and implanted with mini-osmotic pumps (Alzet 2002, Alza Corp., Palo Alto Calif., USA) containing phosphoric acid mono-(6-propyl-3,4,5-trihydroxy-tetrahydro-pyran-2-ylmethyl) ester mono sodium salt dissolved in normal saline at a concentration that delivered the drug at a rate of 45 mg/kg/rat/day. […]
# [2] = tested on: passively transferred EAE; experiment: Passively transferred EAE induced with concanavalin A stimulated spleen lymphoblasts (Example 24); type: in vivo, Lewis rats; design: key to Clinical score - Treated, Mean: 0 = asymptomatic to 5 = hind limb paralysis; conditions: 50 mg/kg/day subcutaneously; for Clinical score - Treated, Mean: group mean; for Clinical score - Treated: individual rats, scale 0 to 5, monosodium salt, 50 mg/kg/day
# Description: In a similar type of experiment outlined in Example 20, and in order to study the effect of the agents of the present invention in vivo on a disease caused by T lymphocyte migration into a specific tissue, further experiments were performed in a Lewis rat model of passively transferred EAE. Here, myelin basic protein (MBP)-specific T lymphocytes were generated in spleens of Lewis rats that had been immunised with guinea pig MBP in Freund's complete adjuvant. Thus, in this manner donor T lymphocytes were generated from male 12-20 week old Lewis rats weighing 200 to 250 g. These rats were injected intradermally in a footpad of each hind foot with an emulsion of guinea pig myelin basic protein (MBP; prepared according to the method of Deibler et al., 1972; incorporated herein by reference) in Freund's complete adjuvant (0.1 ml). The adjuvant emulsion was prepared by emulsifying equal volumes of a mixture of 85% light mineral oil (0.8417 g/mL (Sigma)) plus 15% mannide monooleate (Sigma) containing Mycobacterium butyricum (4 mg/ml; Difco) and normal saline containing guinea pig myelin basic protein (0.25 mg/ml). Thus, the total dose per rat was 25 micrograms of MBP and 400 micrograms of M. butyricum. Ten days following injection, the rats were euthanased and the spleens removed aseptically by blunt dissection and placed into mixed lymphocyte culture medium. This medium was prepared in the normal fashion from Dulbecco's Modified Eagle's Medium (DMEM; GIBCO, Grand Island, N.Y.) supplemented with glucose (4 g/L), folic acid (6 mg/L), L-asparagine (36 mg/L), sodium bicarbonate (2 g/L), L-arginine (116 mg/L), L-glutamine (2 mM), sodium pyruvate (1 mM), HEPES (10 mM), 2-mercaptoethanol (5×10^−5 M), penicillin, streptomycin, neomycin, and 10% fetal calf serum. A single cell suspension was prepared from the spleens in the usual manner by gently pushing them through a stainless steel screen. The cells were washed twice and cultured asceptically for 72 hours at 37° C. in a humidified atmosphere containing 5% carbon dioxide at a concentration of 2 million cells per milliliter in the presence of concanavalin A (2 microgram/mL). The cells were collected and washed twice in Hanks balanced salt solution. Cells were resuspended in Hanks balanced salt solution and each recipient animal (10-12 weeks old female Lewis rats; 160-180 g) received 40-42.5 million lymphoblasts by lateral tail vein injection in a volume of 0.5 ml.
# In a typical experiment 4-5 recipient rats were anesthetised with diethyl ether and implanted with mini-osmotic pumps (Alzet 2001, Alza Corp., Palo Alto Calif., USA) containing the test compound. A second group of 4 animals, the control group, under ether anesthesia, were implanted with Alzet 2001 pumps containing normal saline. Mini-osmotic pumps were implanted three days after cell transfer. Disease severity (clinical score) was scored on an arbitrary scale of severity ranging from 0 to 5 as follows: 0, asymptomatic; 1, flaccid distal half of tail; 2, entire tail flaccid; 3, ataxia, difficulty in righting reflex; 4, hind limb weakness; 5, hind limb paralysis. Mean maximum clinical scores were calculated and the disease index (DI) for each group was calculated as described in Example 20. The results of these experiments are outlined in Tables 6, 7 and 8.
# [3] = tested on: DTH response to 2,4-dinitrofluorobenzene (DNFB); experiment: Delayed-type hypersensitivity (DTH) response to DNFB, ear swelling; type: in vivo, Balb/C mice
# From the text: In the present Example, a murine model of Type IV hypersensitivity or delayed-type hypersensitivity (DTH) response to cutaneous contact with the chemical hapten 2,4-dinitrofluorobenzene (DNFB) (Aldrich Chemical Company Inc, USA) was used as a model to measure the anti-inflammatory effects of compounds of the present invention. Specific pathogen-free 8-12 week old female Balb/C mice, weighing 19-21 g, were sensitised in a similar manner to that described by Klimuk et al., (Klimuk et al., 1999) by applying a solution of DNFB (0.5% in acetone:olive oil (4:1, v/v); 30 microliters,) onto a 2 cm^2 shaved area of the abdomen. After 7 days, the animals were anesthetised with diethyl ether and 8 microliters of DNFB (0.35% in acetone:olive oil (4:1, v/v) was applied to the dorsal and ventral surfaces of the right pinna. Prior to regaining consciousness, the mice were implanted intraperitoneally with Alzet 2001 mini-osmotic pumps (Alza Corp., Palo Alto Calif., USA) containing phosphoric acid mono-[6-(3-hexyloxy-propyl)-3,4,5-trihydroxy-tetrahydro-pyran-2-ylmethyl] ester, sodium salt in normal saline. The dose delivered was 50 mg/kg/day. Control animals for this group received saline delivered in identical mini-osmotic pumps. A second experimental group of mice received phosphoric acid mono-[3-(3,4,5-trihydroxy-6-phosphonooxymethyl-tetrahydro-pyran-2-yl)-propyl] ester disodium salt via one-week delivery Alzet 2001 mini-osmotic pumps implanted intraperitoneally. This compound was delivered at a dose of 40 mg/kg/day. Control animals for this group received saline delivered in identical mini-osmotic pumps. In a third experiment a separate group of mice received (3,4,5-trihydroxy-6-phosphonooxymethyl-tetrahydro-pyran-2-yl)-acetic acid disodium salt via one-week delivery Alzet 2001 mini-osmotic pumps that were placed intraperitoneally. This compound was delivered at 45 mg/kg/day. The control group for this experiment received identical mini-osmotic pumps containing normal saline. In a fourth experiment a group of mice received 3-phenyl-2-[2-(3,4,5-trihydroxy-6-phosphonooxymethyl-tetrahydro-pyran-2-yl)-acetylamino]-propionic acid monosodium salt via one-week delivery Alzet 2001 mini-osmotic pumps that were placed subcutaneously. This compound was delivered at 62 mg/kg/day. The control group for this experiment received identical mini-osmotic pumps containing normal saline. In a fifth experiment a group of mice received hexanoic acid 3-(3,4,5-trihydroxy-6-phosphonooxymethyl-tetrahydro-pyran-2-yl)-propyl ester sodium salt via one-week delivery Alzet 2001 mini-osmotic pumps that were placed subcutaneously. This compound was delivered at 40 mg/kg/day. The control group for this experiment received identical mini-osmotic pumps containing normal saline.
# Twenty-four hours after challenge the mice were lightly anesthetised with diethyl ether and the thickness of the left and right pinnae measured (in millimeters) using a dial gauge micrometer (Interapid, Switzerland). Care was taken to measure only the outer two thirds of the ear. The increase in ear thickness initiated by the DTH response was determined by subtracting the measurement of the left ear (untreated) from the right ear (challenged).
# In Table 4, values in the columns labeled Left and Right are measurements of ear thickness in millimeters of the control and challenged ears respectively.
smiles,measurement,setting,value
"CCCC1OC(COP(=O)([O-])O)C(O)C(O)C1O.[Na+] (stereo not drawn) [phosphoric acid mono-(6-propyl-3,4,5-trihydroxy-tetrahydro-pyran-2-ylmethyl) ester mono sodium salt]",drug-treated animals that developed disease,"[1]; 45 mg/kg/rat/day, control group 5/5",3/5
same,lesions per section in the most affected animal,"[1]; day 6 post lymphocyte transfer, histology",no more than 8 lesions per section
same,average lesions (per section) in spinal cord,"[1]; day 6 post lymphocyte transfer, histology, control approximately 15 lesions/section",3.5 lesions
same,Mean maximum clinical score,"[1]; treated group, 45 mg/kg/rat/day, control group 2.0",1.0
same,disease index (DI),"[1]; treated group, 45 mg/kg/rat/day, control group DI 160",40
"CCCCCCOCCCC1OC(COP(=O)([O-])O)C(O)C(O)C1O.[Na+] (stereo not drawn) [phosphoric acid mono-[6-(3-hexyloxy-propyl)-3,4,5-trihydroxy-tetrahydro-pyran-2-ylmethyl] ester, monosodium salt]","Clinical score - Treated, Mean",[2]; day 5,1
same,Clinical score - Treated,[2]; day 5,0.5 (2×) and 1 and 2
same,"Clinical score - Treated, Mean",[2]; day 6,2.75
same,Clinical score - Treated,[2]; day 6,3 and 2 (2×) and 4
same,"Clinical score - Treated, Mean",[2]; day 7,2.5
same,Clinical score - Treated,[2]; day 7,2 (3×) and 4
same,"Clinical score - Treated, Mean",[2]; day 8,2.25
same,Clinical score - Treated,[2]; day 8,2 (3×) and 3
same,"Clinical score - Treated, Mean",[2]; day 9,1.25
same,Clinical score - Treated,[2]; day 9,1 (2×) and 1.5 (2×)
same,"Clinical score - Treated, Mean",[2]; day 10,0.5
same,Clinical score - Treated,[2]; day 10,0 (2×) and 1 (2×)
same,Mean maximum clinical score,"[2]; treated group, control 4.5",clinical score 3
same,DI (disease index),"[2]; treated group, control DI 67.2",DI - 34.1 Mean maximum
same,Mean percentage decrease in ear swelling in treated animals,"[3]; 50 mg/kg/day intraperitoneally, versus saline controls",Mean percentage decrease in ear swelling in treated animals: 36.7%
same,"Mean Difference, Treated","[3]; group mean, 50 mg/kg/day intraperitoneally, saline control mean 0.098",0.062 millimeters
same,"Difference (right minus left ear), Treated","[3]; individual mice, 50 mg/kg/day, mini-osmotic pump intraperitoneally, 24 hours after challenge, monosodium salt",0.03 millimeters and 0.05 millimeters (2×) and 0.08 millimeters and 0.1 millimeters
same,"Right ear thickness, Treated","[3]; individual mice, challenged ear, 50 mg/kg/day, mini-osmotic pump intraperitoneally, 24 hours after challenge, monosodium salt",0.25 millimeters (2×) and 0.26 millimeters and 0.3 millimeters and 0.32 millimeters
same,"Left ear thickness, Treated","[3]; individual mice, control (unchallenged) ear, 50 mg/kg/day, mini-osmotic pump intraperitoneally, 24 hours after challenge, monosodium salt",0.22 millimeters (3×) and 0.21 millimeters and 0.2 millimeters
